Results on 1 compound are retold here after patent US6638938B1, “Method for preventing tissue injury from hypoxia” (Cell Therapeutics, Inc., priority 1993, dated 2003).

Data set [1] relates to neutrophils in lung lavages. As to the kind of experiment: lung lavage neutrophils of intact rats given IL-1 intratracheally. In kind it is in vivo, Sprague-Dawley rats. Here is the method:
Interleukin-1α (IL-1) and Lisofylline administration in Male Sprague-Dawley rats weighing 300-350 g (Sasco, Omaha, Neb.) were fed a normal diet and acclimated to altitude (Denver, Colo.) for at least 14 days before study. Rats were anesthetized with ketamine (90 mg/kg) and zylazine (7 mg/kg) intraperitoneally and then supplemented as needed with ketamine and zylazine and kept on a warming blanket. The trachea was cannulated with an indwelling 15 gauge stub adaptor tube. After 5 ventilated breaths (Harvard Apparatus Co., Millis, Mass.), IL-1 (0.5 ml, 50 ng) in sterile, endotoxin-free saline, was rapidly instilled intratracheally with a syringe, followed by another 5 ventilated breaths. Sham treated rats received identical anesthesia and surgery but were injected only with sterile saline intratracheally. […]
Saline (3.0 ml×2) was slowly injected intratracheally and then withdrawn. Recovered lavage fluid was quantitated and centrifuged for 5 min and the cell pellet resuspended in 1.0 ml of lavage. Total cells were counted in a hemocytometer and a cytospin preparation (Shandon Southern Products Ltd, Cheshire, England) Wright-stained and examined to determine the percentages of neutrophils.

In data set [2] the test system is TNFα. As to the kind of experiment: TNFα sandwich ELISA of BAL supernatants and plasma. It counts as in vivo, Balb/C mice. Here is the method: (§1) This example illustrates a study of Lisofylline in a murine hemorrhage and resuscitation model. Male Balb/C mice, 8-12 weeks of age, were obtained from Harlan-Sprague Dawley (Indianapolis, Ind.). The animals were kept on a 12 hour light/dark cycle with free access to food and water. With this model, 30% of the calculated blood volume (approximately 0.55 ml for a 20 gram mouse) was withdrawn from a methoxyflurane anesthetized mouse by cardiac puncture over a 60-second period. The blood was collected into a heparinized syringe (5 units heparin), kept at 37° C. for one hour, then reinfused into the mouse through a retroorbital plexus injection. Using this method, one is able to resuscitate all hemorrhaged mice without complication. The total period of methoxyflurane anesthesia is less than 2 minutes in all cases. The mortality rate with this hemorrhage protocol is approximately 12%, with all deaths occurring over the 24 hours post hemorrhage, and most deaths occurring within the one hour post hemorrhage.
Mice were treated with 100 mg/kg Lisofylline in 0.2 ml PBS and given initially i.v., by retroorbital injection, then i.p. every 8 hours for a total of 9 doses. In hemorrhaged mice, the Lisofylline in PBS was added to the shed blood, and then given retroorbitally with the blood during the resuscitation phase. In hemorrhaged Balb/C mice (n=3), sacrificed by exsanguination 5 minutes after receiving Lisofylline with the blood used for resuscitation, serum levels of Lisofylline were 44±6 μg/ml.
(§2) Three days following hemorrhage and resuscitation or the initiation of treatment with Lisofylline therapy in normal treated animals, mice were anesthetized with methoxyflurane and sacrificed by exsanguination through cardiac puncture into a heparinized (5 U) syringe. Normal mice, not subjected to hemorrhage/resuscitation or to treatment with Lisofylline, were included. Bronchoalveolar lavage (BAL) specimens, using 1.0 ml PBS injected and aspirated three times into the trachea and lungs, were obtained. Cells contained in the BAL were collected by centrifugation of BAL specimens. […] As determined by cytology, there was less than 3% contamination of alveolar macrophages with lymphocytes, neutrophils, or other mononuclear cell populations when BAL specimens are collected in normal Balb/C mice, but approximately 11±2% of isolated cells are neutrophils in mice subjected 3 days previously to 30% blood volume hemorrhage with resuscitation one hour later. […]
TNFα and IFN-γconcentrations in BAL supernatants and plasma were determined with sandwich ELISA assays using the monoclonal antibody pairs (i.e., unbiotinylated or biotinylated) MP6-XT3 for TNFα and XMG1.2 for IFN-γ(Pharmingen San Diego, Calif.). […]
(In general: An ELISA detects its analyte on a solid surface through an enzyme-linked reagent.)

In data set [3] the test system is neutrophils in BAL. As to the kind of experiment: percentage of neutrophils among BAL samples. In kind it is in vivo, Balb/C mice. Conditions: hemorrhage/resuscitated mice treated; 11±2% in untreated; p<0.05. Here is the method: as §1, with “The total period of methoxyflurane anesthesia is less than 2 minutes in all cases. The mortality rate with this hemorrhage protocol is approximately 12%, with all deaths occurring over the 24 hours post hemorrhage, and most deaths occurring within the one hour post hemorrhage.” left out
as §2, with “syringe.” for “syringe. Normal mice, not subjected to hemorrhage/resuscitation or to treatment with Lisofylline, were included. Bronchoalveolar lavage (BAL) specimens, using 1.0 ml PBS injected and aspirated three times into the trachea and lungs, were obtained. Cells contained in the BAL were collected by centrifugation of BAL specimens.”

Data set [4] can be described thus: serum level of Lisofylline in hemorrhaged mice. As to conditions: male, mouse, intravenous, hemorrhaged Balb/C mice, 5 minutes after 100 mg/kg Lisofylline given with resuscitation blood, read-out: serum levels of Lisofylline. In kind it is in vivo. The protocol:
as §1
Mice were treated with 100 mg/kg Lisofylline in 0.2 ml PBS and given initially i.v., by retroorbital injection, then i.p. every 8 hours for a total of 9 doses. In hemorrhaged mice, the Lisofylline in PBS was added to the shed blood, and then given retroorbitally with the blood during the resuscitation phase. […]

With `C[C@@H](O)CCCCn1c(=O)c2c(ncn2C)n(C)c1=O` [Lisofylline, 1-R-(5-hydroxyhexyl)-3,7-dimethylxanthine], the figures for the “Total Lavage PMNs” value in data set [1] (IL-1 + Lisofylline (100 μg/kg)) and in data set [1] (Sham + Lisofylline (100 μg/kg)) were 3.64 ± 0.84 (9)δ number × 10^6 and 0.42 ± 0.14 (8)δ number × 10^6, respectively. Moreover, the figures for the “plasma TNFα concentrations” value in data set [2] (hemorrhage/resuscitated/Lisofylline treated mice) and in data set [2] (normal/Lisofylline treated mice) were 218 ± 49 pg/mL and 116 ± 36 pg/mL, respectively. For the same compound, in data set [2] (hemorrhaged/resuscitated mice treated), the “TNFα concentrations in BAL supernatants” value came out at 73 ± 45 pg/mL. Also, the “TNFα in BAL supernatants” value in data set [2] (unhemorrhaged mice treated, p<0.01 versus normal untreated) worked out at 676±80 pg/mil. In data set [3], the “percentage of neutrophils among BAL samples” value is recorded as 6±2%. For the same compound, the concentration at 5 min in data set [4] worked out at 44000 ± 6000 ng/mL.
